Laboratory results from patent publication US20200400567A1, “FUSION POLYPEPTIDE” (PEKING UNIVERSITY, priority 2017, published 2020).
“And” between values parts separate entries of the source, which are not always exact repeats. Identical values can stand only once. “Also recorded” adds a separate entry of the source. Like-named read-outs stand apart in the source and are kept apart here.

Assays:
[1] = system: human acetylcholine receptor M3R subtype; experiment: GRAB-ACh sensor fluorescence response to ACh, drug perfusion in HEK293T cells; type: cell-based
Method: After DNA encoding specific GRAB sensor was introduced into cells by transfection, fluorescence imaging combined with perfusion experiment was. The imaging capture of HEK293T cells was performed using an Olympus IX81 inverted microscope, 40×NA: 1.35 oil lens, 475/28 excitation light filter, and 515LP emission light filter. The optical signal was collected by a Zyla sCMOS DG-152V-Cle FI camera (Andor), and Lambda DG-4 from Sutter Instuments company was used as a fluorescent light source. The exposure time was set to less than 50 ms and the acquisition frequency was 5 seconds. The entire imaging system was overall controlled by micromanager software.
The detection of the response of the GRAB sensor to the ligand (ΔF/F0) was performed using a drug perfusion method. The cells were placed in a standard physiological solution, and the formula thereof is: […]
The pH of the physiological solution was adjusted to about 7.4, and the small molecule drug was diluted with a part of the physiological solution to formulate solutions of respective concentrations of the small molecule ligand. […] Unless explicitly specified, the concentration of isoproterenol (ISO) for perfusion was 2 μM, and the concentration of acetylcholine for perfusion was 100 μM.
The perfusion system was equipped on a microscope, including a solution-introduced system made of syringe for injection, a multi-way valve, an imaging workbench and a suction pump. During the perfusion process, the imaging workbench was placed above the objective lens of the inverted microscope, and then the slide on which cell plated were placed in the workbench. Perfusion of different drugs were performed by controlling the switches of different pipes. In order to control the level of the solution in the workbench, the perfusion speed was set to one drop or so per second. After each drug treatment, the cells were washed with a physiological solution for more than five minutes to ensure that there were no residual drugs that will affect subsequent experiments. After the end of each experiment, the perfusion pipe and the workbench were cleaned with 75% ethanol three times to ensure that the residual drugs and impurities were fully washed away.
Fluorescence imaging data was processed using ImageJ software. For the performance of GRAB sensors in HEK293T cells and neurons, the fluorescence of entire cell body was selected as the data processing region. For living Drosophila imaging, fluorescence images on the same Z axis were analyzed by ImageJ software. The change in the fluorescence signal was indicated by its relative difference. The signal of background area without the expression of the sensor was first subtracted from the fluorescence signal, so as to obtain the real expression of the intensity of the fluorescent protein. Then, by calculating the fluorescence value F after adding the drug and the average fluorescence value F0 before adding, the relative fluorescence change ΔF/F=(F−F0)/F0 was obtained as the fluorescence response of the sensor to a specific drug. The change of ΔF/F0 with time was further plotted by Origin 8.6 software.
Based on GRAB-ACh 1.0, this peptide linker was optimized. First, based on a flexible amino acid (glycine, alanine), the peptide segment was screened for optimal length. The specific strategy was to change the length of the peptide linkers at the N-terminus and C-terminus from 0 to 5 amino acids, respectively, and to randomly combine the N-terminus with C-terminus to obtain all possible permutations. Fusion protein expression vectors containing various arrangements were expressed in HEK293T cells and subjected to perfusion experiments.

human HTR2C receptor = type: cell-based; settings: for agonist-induced change of GRAB-5-HT2.1 fluorescence signal: GRAB-5-HT2.1 in HEK293T cells; for antagonism of serotonin-induced increase of GRAB-5-HT2.1 fluorescence signal: antagonist added after serotonin
human ADRA2A receptor = type: cell-based
Method: The perfusion system was set on a microscope, and including a solution-introduced system, an imaging cell, and a suction pump. During the perfusion process, the imaging cell was placed above the objective lens of the inverted microscope, and the slide with cultured cells was placed in the cell. The perfusion experiments of different drugs were performed by controlling the switches of the different pipes of the solution-introduced system. The perfusion speed was set to one drop or so per second. In order to ensure the stability of the focal plane, the liquid level was kept constant at all times, and the flow rate of each solution was adjusted accordingly. The aspiration speed was adjusted to maintain the liquid level in the cell over the slide.
The region of interest (ROI) and background area were selected manually prior to the perfusion experiment. The exposure time was set to less than 50 ms and the acquisition frequency was 5 seconds. The solution used for the perfusion was a physiological solution 4k (pH 7.3-7.4), which was used to formulate the drug to the desired concentration. The running time of the program was set to no more than 5 min. After using 4k to balance and stabilize the cells for about 60-90 s, the cells were perfused with drug for 60 s, and then washed with 4k. The excitation light for green fluorescent protein was 488 nm, and for red fluorescent protein was 568 nm. The laser intensity was adjusted according to the working state of the laser and the expression level of the cells.
After the end of the program, the time-fluorescence intensity data sheet was exported. The background was subtracted from the ROI to get the corresponding fluorescence value Ft, and the average value of the fluorescence value before adding the drug was used as the starting fluorescence F0 to calculate
The detection of the response of the GRAB sensor to the ligand (ΔF/F0) was performed by drug perfusion. The cells were maintained in a standard physiological solution, and the formula thereof is: […]
Fluorescence imaging data was processed using ImageJ software. For the fluorescence performance of GRAB sensors in HEK293T cells and neurons, the entire cell body was selected as the data processing region. The change in the fluorescence signal was usually indicated by its relative intensity change. The background area without the expression of the sensor was first subtracted from the fluorescence signal, so as to obtain the true expression intensity of the fluorescent protein.

human DRD2 receptor = experiment: GRAB-GDA3.0 fluorescence response in HEK293T cells, drug perfusion; type: cell-based
Source text: There are 5 subtypes of human dopamine receptors in the body, which are named DRD1-DRD5. For constructing a fluorescent sensor, the receptors were screened preliminarily by inserting a fluorescent protein at any position in the third intracellular loop of the receptor. […] Specifically, for the third intracellular loop of the human DRD2 receptor, the insertion sites were set every 15 amino acids. Human DRD2 receptors inserted with circular permutated fluorescent proteins at different positions were expressed in HEK293T cells, and drug perfusion experiments were conducted with dopamine. […] After the positions sensitive to conformational change were determined, the surrounding amino acid sites thereof were further screened. The sites surrounding the amino acid position 252 at N-terminus and the sites surrounding the amino acid position 357 at the C-terminus were combined and different sensors were constructed. The sensors were expressed in HEK293T cells and subjected to drug perfusion experiments with dopamine. […] The peptide linkers were GG at the N-terminus and GGAAA at the C-terminus.

[2] = system: GRAB-GDA3.0 signal in mushroom body (MB); experiment: Odor-stimulated GRAB-GDA3.0 signal in mushroom body, in vivo two-photon imaging; set-up: species or system Drosophila; settings: 10 μM antagonist in imaging solution, n=6
Method: Drosophila were kept in a 25-degree incubator with a standard medium. […] The adult Drosophila to be tested were transferred to a new culture tube within 0-2 days after emergence, and left at room temperature for 8-12 days. Before the imaging, the Drosophila were first fixed in a small dish, and then the square skull part near the eye was surgically removed to expose part of the brain. The adipose tissue and air sacs near the antennal lobes to be imaged were surgically removed to prevent interference with the fluorescent signal. In order to further reduce the degradation of image quality caused by the movement of Drosophila during the imaging, surgical forceps were used to cut the muscles underneath its halter. Throughout the dissection and imaging procedures, the brain of Drosophila was kept in a pre-chilled physiological solution, and the formula thereof is as follows: […]
Drosophila imaging was performed using an Olympus two-photon microscope, including Olympus BX61 WI microscope, 25×NA: 1.05 water lens, and Ti:Sapphire laser mode-locked laser for two-photon excitation. For GRAB sensor imaging experiments, the wavelength of the […] was set to 950 nm in order to successfully excite the fluorescent protein to produce fluorescence. The odor molecule isoamyl acetate (IA) used for stimulating Drosophila was purchased from Sigma, and was diluted in mineral oil at a ratio of 1:100. In the experiment, the isoamyl acetate was further diluted 5-40 times by mixing with air. The air mixed with odor molecules was provided at a position about 1 cm away from the tentacles of the Drosophila through a cavity about 1 cm wide on the experimental table. The odor molecule of different concentrations was tested by controlling the airflow. Each imaging cycle was 17.8 seconds, of which 5 to 10 seconds was the time for providing specific odor molecules. After the imaging experiment for odor function, the imaging area was scanned layer by layer with high resolution setting to obtain the distribution information of the olfactory bulb, which was later identified based on the information of olfactory bulb distribution at the antennal lobe reported in the literature.
The transgenic Drosophila UAS-GRAB-GDA3.0 was constructed to express the GRAB-GDA3.0 sensor in specific cells, driven by the corresponding GAL4 strain. First, GRAB-GDA3.0 was expressed in dopaminergic neurons (DAN) in all Drosophila, and the response induced by odor (isoamyl acetate) was examined by in vivo two-photon imaging (FIG. 39A).
A pharmacological study was performed on GRAB-GDA3.0.
The rate of GDA signal attenuation between normal Drosophila and Drosophila with reduced DAT expression was compared (this is the experiment of gene level research using DAT-RNAi described later). In DAN, the dopamine transporter (DAT) is located in the presynaptic membrane and […] DA intermittently and cyclically from the synapse. DAT-RNAi was used to inhibit DAT expression in DAN (FIG. 40G).

[3] = system: human acetylcholine receptor M3R subtype; experiment: GRAB-ACh 2.0 kinetics, rapid local perfusion with high-speed line scanning; type: cell-based
Method: For the detection of GRAB sensor kinetics, a local drug delivery system was used for the experiment. The experiment was performed using an Olympus upright microscope BX51, wherein a 40×NA: 0.80 water lens was used for imaging, and a 710M camera (DVC) was used for image acquisition. The drug delivery system was controlled by ROE-200 (from Sutter instruments company), and the position of the drug delivery needle was controlled by the MPS-1 operating lever. For the dynamic characterization experiment of the sensor, the imaging was processed using a frequency of 50 HZ (with a resolution of 768×484 pixels) and a surface element partition of 2×2.
The Journal of pharmacology and experimental therapeutics 330, 660-668 (2009)) reduced the fluorescence signal in GRAB-ACh 2.0 expressing cells perfused with 100 μM ACh, with a smaller time constant of 762±75 ms (FIGS. 14b-c, right panel).
Target sequence in this assay (as listed by the source): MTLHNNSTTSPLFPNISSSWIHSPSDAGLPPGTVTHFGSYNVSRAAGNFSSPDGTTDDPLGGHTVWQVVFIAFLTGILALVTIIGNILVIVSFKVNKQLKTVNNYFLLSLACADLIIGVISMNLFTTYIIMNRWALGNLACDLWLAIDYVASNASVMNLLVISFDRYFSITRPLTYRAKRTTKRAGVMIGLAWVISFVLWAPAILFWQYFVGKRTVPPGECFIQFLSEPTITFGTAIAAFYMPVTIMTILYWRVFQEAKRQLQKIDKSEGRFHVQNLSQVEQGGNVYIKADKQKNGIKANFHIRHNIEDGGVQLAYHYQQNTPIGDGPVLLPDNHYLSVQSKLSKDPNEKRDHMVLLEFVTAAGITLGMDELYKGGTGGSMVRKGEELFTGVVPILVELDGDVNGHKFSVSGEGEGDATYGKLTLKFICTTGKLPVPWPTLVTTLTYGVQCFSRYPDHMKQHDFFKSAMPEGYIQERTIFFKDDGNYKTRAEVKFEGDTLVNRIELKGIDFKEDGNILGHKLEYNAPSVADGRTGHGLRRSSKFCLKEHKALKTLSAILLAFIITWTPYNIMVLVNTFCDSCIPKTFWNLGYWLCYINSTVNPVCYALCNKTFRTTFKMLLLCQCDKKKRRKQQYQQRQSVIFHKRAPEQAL

Molecule: CCCN(CCC)CC1CCCCN1CCNC(=O)N1c2ccccc2C(=O)Nc2cccnc21 (centres unmarked) [AF-DX384]
- effect of M3R antagonist on ACh-induced increase of fluorescence ([1]; GRAB-ACh 2.0 in HEK293T cell): completely blocked

Molecule: CC(N)Cc1c[nH]c2ccc(OCc3cccs3)cc12 (centres unmarked) [BWT23C83]
- agonist-induced change of GRAB-5-HT2.1 fluorescence signal (human HTR2C receptor): cannot cause the change; also recorded: cannot change the fluorescent signal

Molecule: CN1CCN(c2nc3cc(C(F)(F)F)ccc3n3cccc23)CC1.O=C(O)/C=C\C(=O)O.O=C(O)/C=C\C(=O)O [CGS12066B]
- agonist-induced change of GRAB-5-HT2.1 fluorescence signal (human HTR2C receptor): cannot cause the change; also recorded: cannot change the fluorescent signal

Molecule: Clc1cccc(COc2cncc(N3CCNCC3)n2)c1 [CP809]
- agonist-induced change of GRAB-5-HT2.1 fluorescence signal (human HTR2C receptor): can cause the fluorescence signal change; also recorded: can induce changes in fluorescent signal

Molecule: CNC[C@H](O)c1ccc(O)c(O)c1 [Epi, Epinephrine]
- activation of GRAB-NE2.1 fluorescence signal by ligand (human ADRA2A receptor): can activate
- fluorescent signal change of GRAB-NE2.0 to ligand (human ADRA2A receptor): exhibits a fluorescent signal change

Molecule: Nc1nc2c(ncn2[C@@H]2O[C@H](COP(=O)(O)OP(=O)(O)OP(O)(O)=S)[C@@H](O)[C@H]2O)c(=O)[nH]1 [GTPγS]
- effect of Gαi inhibition on concentration-dependent curve of GRAB-NE2.0 to NE (human ADRA2A receptor; PTX co-transfection or GTPγS with digitonin): did not change the concentration-dependent curve

Molecule: O=C(CCCN1CCC(O)(c2ccc(Cl)cc2)CC1)c1ccc(F)cc1 [Haloperidol]
- activation or block of GRAB-GDA3.0 (human DRD2 receptor): blocked; also recorded: inhibited
- effect on odor (IA)-stimulated GDA signal in MB β' lobe ([2]; listed as halo): can be blocked
- effect on odor (IA)-stimulated GDA signal in MB β' lobe ([2]; listed as haloperidol): completely blocked

Molecule: CC(C)NCC(O)c1ccc(O)c(O)c1 (centres unmarked) [ISO, Isoproterenol]
- fluorescent signal change of GRAB-NE2.0 to ligand (human ADRA2A receptor; GRAB-NE2.0, saturated concentration): no response
- activation of GRAB-NE2.1 fluorescence signal by ligand (human ADRA2A receptor; cells expressing GRAB-NE2.1): cannot

Molecule: NC[C@H](O)c1ccc(O)c(O)c1 [NE, Norepinephrine]
- activation of GRAB-NE2.1 fluorescence signal by ligand (human ADRA2A receptor): can activate
- fluorescent signal change of GRAB-NE2.0 to ligand (human ADRA2A receptor): exhibits a fluorescent signal change

Molecule: COc1cc(OC)c(C(=O)CCCCN2CCC3(CC2)NC(=O)NC3=O)cc1NS(=O)(=O)c1ccc(C(F)(F)F)cc1 [RS102221]
- antagonism of serotonin-induced increase of GRAB-5-HT2.1 fluorescence signal (human HTR2C receptor): can antagonize; also recorded: can inhibit

Molecule: Cc1cc(NC(=O)Nc2ccc3c(ccn3C)c2)sn1 [SB204741]
- antagonism of serotonin-induced increase of GRAB-5-HT2.1 fluorescence signal (human HTR2C receptor): cannot antagonize; also recorded: failed to inhibit

Molecule: NCCc1ccc(O)c(O)c1 [dopamine, Dopamine]
- activation or block of GRAB-GDA3.0 (human DRD2 receptor; HEK293T cells): activated

Molecule: NC1=NCC2c3ccccc3Cc3ccccc3N12 (centres unmarked) [epinastine]
- effect on odor (IA)-stimulated GDA signal in MB β' lobe [2]: cannot be blocked; also recorded: failed to be blocked

Molecule: GRAB-ACh 2.0: GRAB-ACh variant with GG-APSVA peptide linkers, SEQ ID NO: 16
- ΔF/F0 peak response ([1]; 100 μM ACh perfusion, HEK293T cells): ~100% and 90.12±1.74% and 94.0±3.0% and 90%
- EC50 ([1]; ACh 10 nM to 100 μM, Boltzmann fit, n=4): ~0.7 µM
- ΔF/F0 response ([1]; ACh (100 μM), second round screening, HEK293T cells): ~0.9
- pEC50 ([1]; dose-dependent response to ACh): 6.12 ± 0.11
- time constant of fluorescence increase ([3]; ACh perfusion, single scan): 185 ms
- time constant of fluorescence decrease ([3]; Tio perfusion, single scan): 696 ms
- average on time constant ([3]; local ACh perfusion, single exponential fit, n=18): 279.4 ± 32.6 ms and 280 ± 32 ms
- average off time constant ([3]; local antagonist perfusion in 100 μM ACh, n=11): 762.3 ± 74.9 ms and 762 ± 75 ms
